Assay results published in patent US20100234323A1, “Antimicrobial Acids and Salts” (priority 2006, published 2010).
Values joined by “and” are separate entries in the source; they are usually repeats but may differ in a detail not shown here. Equal values may be shown once.

Assays:
[1] = tested on: Escherichia coli (ATCC 10535); assay: Microbicidal activity, European Standard EN1040 suspension test; type: cell-based; settings: for E. coli cfu/mL (residual cell count): room temperature
Procedure: (§1) Microbicidal activity of different anionic siloxanes with carboxyl groups is tested according to European Standard EN1040. A bacterial suspension with a cell count of about 10^7 cfu/ml (cfu stands for colony-forming units) is contacted with appropriate concentrations of the specific substances and the residual cell count is determined after incubation times of 5 and 30 min. at room temperature under continuos stirring. Staphylococcus aureus (ATCC 5638, American Type Culture Collection, Manassas, USA) is tested as gram+ (gram positive) and Escherichia coli (ATCC 10535, American Type Culture Collection) as gram-organism. The results are given as a log reduction at each incubation time in comparison to a water control in the following tables (a) and (b): […]

[2] = tested on: Staphylococcus aureus (ATCC 5638); assay: as above; type: cell-based; settings: for S. aureus cfu/mL (residual cell count): room temperature
Procedure: as §1

[3] = tested on: Aspergillus niger (DSM 1957/ATCC 6275); assay: Fungicidal activity, European Standard EN12175 spore suspension test; type: cell-based; settings: test conc. 1%; for log reduction A. niger: vs water control
Procedure: (§2) Fungicidal activity is tested according to European Standard EN12175. A fungal spore suspension with a spore cell count of about 10^6 cfu/ml is contacted with appropriate concentrations of the specific substances (Examples) mentioned in the tables below and the residual spore cell count is determined after incubation times of 30 and 60 min at room temperature under continuous stirring. Penicillium funiculosum (DSM 1960), Aspergillus niger (DSM 1957/ATCC 6275) and Aureobasidium pullulans (DSM 2404) are tested as important mold strains. DSM refers to microorganisms obtainable under the numbers given at the DSMZ (Deutsche Sammlung von Mikroorganismen and Zellkulturen GmbH, Braunschweig, Germany). ATCC numbers refer to organisms obtainable from the American Type Culture Collection (see Example 6). The results are given as a log reduction at each incubation time in comparison to a water control in table (d): […]

[4] = tested on: Aureobasidium pullulans (DSM 2404); assay: as above; type: cell-based; settings: test conc. 1%; for log reduction A. pull.: vs water control
Procedure: as §2

[5] = tested on: Penicillium funiculosum (DSM 1960); assay: as above; type: cell-based; settings: test conc. 1%; for log reduction P. funic.: vs water control
Procedure: as §2

[6] = tested on: Staphylococcus aureus cells; assay: Antiadhesive efficacy on coated PMMA test specimen, antibody colorimetric assay; type: cell-based; settings: specimen coated from 0.50% solution in EtOH; S. aureus suspension 1 hour at 30°
Procedure: The antiadhesive efficacy (inhibition of adhesion of microorganisms) is tested after temporarily attaching various compounds to PMMA test specimen by incubation of the test specimen in a 0.5% solution in ethanol. The coated specimen are then dried and afterwards incubated in a suspension of Staphylococcus aureus cells for 1 hour at 30° under shaking. After some washing steps, the attached cells are detected via binding of a primary antibody and—after incubation of night and again washing steps—binding of a secondary antibody with alkaline phosphatase attached. The adhesion is then determined in a colorimetric assay in comparison to an untreated PMMA test specimen, which is calculated as showing 100% adhesion.

S. aureus ATCC 6538 = assay: Antibacterial efficacy on treated polypropylene non-woven, modified AATCC-100; type: cell-based, Staphylococcus aureus
Procedure: (§3) A solution of Example 1 in a solvent (tetrahydrofurane and/or acetone) is prepared with a concentration of 1 or 2% of the compound of Example 1. This solution is sonicated for 1 min to ensure complete dissolution of the test acid compound. Then polypropylene non-woven (10×10 cm) is dipped into the solution (100 ml) and left under sonication for 1 min. The non-woven is taken out of the solution and dried on air at room temperature for some hours. This non-woven is then used for microbial testing as follows:
(§4) The efficacy of Example 1 is tested after application onto polypropylene non-woven material according to a modified AATCC-100 standard for assessing antibacterial activity on textiles. Overnight cultures of two test bacteria are contacted with the treated non-woven material by pipetting a diluted suspension onto the surface of the material. The non-woven is then incubated for 24 hours at 37° C., and then the cell count is determined by elution of the materials into a neutralizing medium, dilution series and plate count technique. As in the basic test for microbicidal activity (Example 6), Staphylococcus aureus is used as the gram+ and Escherichia coli as the gram-organism.
(§5) The results are given in tables (f) and (g) as cell count directly after inoculation and after 24 hours incubation time in comparison to an untreated polypropylene non-woven as the blank.

E. coli ATCC 10536 = assay: as above; type: cell-based, Escherichia coli
Procedure: as §3, §4, §5

[7] = 1% in EtOH (ethanolic stock solution), 5 min
[8] = 1% in EtOH (ethanolic stock solution), 30 min
[9] = 1% in H2O (stock solution in water), 5 min
[10] = 1% in H2O (stock solution in water), 30 min
[11] = test concentration 1%, 5 min, vs water control
[12] = test concentration 1%, 30 min, vs water control
[13] = test concentration 1000 ppm, 5 min
[14] = test concentration 1000 ppm, 30 min

C[Si]1(CCCC(CC(=O)O)C(=O)O)O[Si](C)(CCCC(CC(=O)O)C(=O)O)O[Si](C)(CCCC(CC(=O)O)C(=O)O)O[Si](C)(CCCC(CC(=O)O)C(=O)O)O1 (centres unmarked) [Example 1]
E. coli cfu/mL [1, 7]: 1.37E+06 cfu/mL | log reduction E. coli [1, 7]: 1.2 | E. coli cfu/mL [1, 8]: 0.00E+00 cfu/mL | log reduction E. coli [1, 8]: >5 | E. coli cfu/mL [1, 9]: 4.62E+06 cfu/mL and 5.03E+06 cfu/mL | log reduction E. coli [1, 9]: <1 | E. coli cfu/mL [1, 10]: 1.97E+06 cfu/mL and 2.09E+06 cfu/mL | log reduction E. coli [1, 10]: 1.1 | E. coli cfu/mL (residual cell count) ([1]; test concentration 1%, 5 min): 0.00E+00 cfu/mL | log reduction E. coli [1, 11]: >5 | E. coli cfu/mL (residual cell count) ([1]; test concentration 1%, 30 min): 0.00E+00 cfu/mL | log reduction E. coli [1, 12]: >5 | S. aureus cfu/mL [2, 7]: 3.45E+06 cfu/mL | log reduction S. aureus [2, 7]: 1 | S. aureus cfu/mL [2, 8]: 1.10E+04 cfu/mL | log reduction S. aureus [2, 8]: 3.3 | S. aureus cfu/mL [2, 9]: 6.98E+06 cfu/mL and 8.19E+06 cfu/mL | log reduction S. aureus [2, 9]: <1 | S. aureus cfu/mL [2, 10]: 9.55E+05 cfu/mL and 1.12E+06 cfu/mL | log reduction S. aureus [2, 10]: 1.3 | S. aureus cfu/mL (residual cell count) ([2]; test concentration 1%, 5 min): 1.20E+04 cfu/mL | log reduction S. aureus [2, 11]: 3.1 | S. aureus cfu/mL (residual cell count) ([2]; test concentration 1%, 30 min): 0.00E+00 cfu/mL | log reduction S. aureus [2, 12]: >5 | A. niger cfu/mL (residual spore cell count) ([3]; 30 min): 1.1E+06 cfu/mL | log reduction A. niger ([3]; 30 min): <1 | A. niger cfu/mL (residual spore cell count) ([3]; 1 h): 1.2E+06 cfu/mL | log reduction A. niger ([3]; 1 h): <1 | A. pull. cfu/mL (residual spore cell count) ([4]; 30 min): 2.1E+05 cfu/mL | log reduction A. pull. ([4]; 30 min): <1 | A. pull. cfu/mL (residual spore cell count) ([4]; 1 h): 2.2E+05 cfu/mL | log reduction A. pull. ([4]; 1 h): <1 | P. funic. cfu/mL (residual spore cell count) ([5]; 30 min): 4.0E+06 cfu/mL | log reduction P. funic. ([5]; 30 min): <1 | P. funic. cfu/mL (residual spore cell count) ([5]; 1 h): 3.8E+06 cfu/mL | log reduction P. funic. ([5]; 1 h): <1 | results on PMMA (adhesion; untreated PMMA = 100% adhesion) [6]: 85% | activity against S. aureus (in words) (S. aureus ATCC 6538; applied at 2%): full activity | activity against S. aureus (in words) (S. aureus ATCC 6538; non-woven treated with 1%): some but inconsistent activity | S. aureus cell count, 24 hours (S. aureus ATCC 6538; polypropylene nonwoven treated with 2% solution, 24 hours at 37° C.): <100 cfu/sample | activity against E. coli (in words) (E. coli ATCC 10536; applied at 2%): high activity | activity against E. coli (in words) (E. coli ATCC 10536; non-woven treated with 1%): no activity

C[Si]1(CCCP(=O)(O)O)O[Si](C)(CCCP(=O)(O)O)O[Si](C)(CCCP(=O)(O)O)O[Si](C)(CCCP(=O)(O)O)O1 (centres unmarked) [Example 2]
E. coli cfu/mL [1, 13]: 1.50E+04 cfu/mL | log reduction E. coli [1, 13]: 3.2 | E. coli cfu/mL [1, 14]: 0.00E+00 cfu/mL | log reduction E. coli [1, 14]: >5 | S. aureus cfu/mL [2, 13]: 1.42E+03 cfu/mL | log reduction S. aureus [2, 13]: 4.3 | S. aureus cfu/mL [2, 14]: 0.00E+00 cfu/mL | log reduction S. aureus [2, 14]: >5

C[Si](C)(CCCC(CC(=O)O)C(=O)O)O[Si](C)(C)O[Si](C)(C)O[Si](C)(C)O[Si](C)(C)O[Si](C)(C)O[Si](C)(C)O[Si](C)(C)O[Si](C)(C)O[Si](C)(C)O[Si](C)(C)O[Si](C)(C)CCCC(CC(=O)O)C(=O)O (centres unmarked) [Example 5]
E. coli cfu/mL (residual cell count) ([1]; test concentration 1%, 5 min): 1.54E+07 cfu/mL | log reduction E. coli [1, 11]: <1 | E. coli cfu/mL (residual cell count) ([1]; test concentration 1%, 30 min): 3.58E+06 cfu/mL | log reduction E. coli [1, 12]: <1 | S. aureus cfu/mL (residual cell count) ([2]; test concentration 1%, 5 min): 1.34E+07 cfu/mL | log reduction S. aureus [2, 11]: <1 | S. aureus cfu/mL (residual cell count) ([2]; test concentration 1%, 30 min): 7.86E+06 cfu/mL | log reduction S. aureus [2, 12]: <1 | A. niger cfu/mL (residual spore cell count) ([3]; 30 min): 7.0E+05 cfu/mL | log reduction A. niger ([3]; 30 min): <1 | A. niger cfu/mL (residual spore cell count) ([3]; 1 h): 6.0E+05 cfu/mL | log reduction A. niger ([3]; 1 h): <1 | A. pull. cfu/mL (residual spore cell count) ([4]; 30 min): 3.5E+05 cfu/mL | log reduction A. pull. ([4]; 30 min): <1 | A. pull. cfu/mL (residual spore cell count) ([4]; 1 h): 3.4E+05 cfu/mL | log reduction A. pull. ([4]; 1 h): <1 | P. funic. cfu/mL (residual spore cell count) ([5]; 30 min): 2.5E+06 cfu/mL | log reduction P. funic. ([5]; 30 min): <1 | P. funic. cfu/mL (residual spore cell count) ([5]; 1 h): 2.7E+06 cfu/mL | log reduction P. funic. ([5]; 1 h): <1 | results on PMMA (adhesion; untreated PMMA = 100% adhesion) [6]: 50%

C[Si](C)(C)O[Si](C)(C)O[Si](C)(CCCC(CC(=O)O)C(=O)O)O[Si](C)(C)C (centres unmarked) [Example 4]
E. coli cfu/mL (residual cell count) ([1]; test concentration 1%, 5 min): 1.03E+05 cfu/mL | log reduction E. coli [1, 11]: 2.3 | E. coli cfu/mL (residual cell count) ([1]; test concentration 1%, 30 min): 0.00E+00 cfu/mL | log reduction E. coli [1, 12]: >5 | S. aureus cfu/mL (residual cell count) ([2]; test concentration 1%, 5 min): 3.22E+06 cfu/mL | log reduction S. aureus [2, 11]: <1 | S. aureus cfu/mL (residual cell count) ([2]; test concentration 1%, 30 min): 1.67E+04 cfu/mL | log reduction S. aureus [2, 12]: 2.9 | A. niger cfu/mL (residual spore cell count) ([3]; 30 min): 1.5E+04 cfu/mL | log reduction A. niger ([3]; 30 min): 2.0 | A. niger cfu/mL (residual spore cell count) ([3]; 1 h): 1.3E+04 cfu/mL | log reduction A. niger ([3]; 1 h): 2.1 | A. pull. cfu/mL (residual spore cell count) ([4]; 30 min): 1.3E+05 cfu/mL | log reduction A. pull. ([4]; 30 min): <1 | A. pull. cfu/mL (residual spore cell count) ([4]; 1 h): 9.0E+04 cfu/mL | log reduction A. pull. ([4]; 1 h): <1 | P. funic. cfu/mL (residual spore cell count) ([5]; 30 min): 4.8E+05 cfu/mL | log reduction P. funic. ([5]; 30 min): 1.0 | P. funic. cfu/mL (residual spore cell count) ([5]; 1 h): 1.14E+05 cfu/mL | log reduction P. funic. ([5]; 1 h): 1.6 | results on PMMA (adhesion; untreated PMMA = 100% adhesion) [6]: 46%
